Measurements as given in patent US9511073B2, “Aromatic amides and uses thereof” (TAXIS Pharmaceuticals, Inc., priority 2011, dated 2016).
Converted amounts (≈) assume the structure as drawn. Read-outs that look alike come from different tables or passages of the source.

Legend:
[1] = system: FtsZ-G196A Staphylococcus aureus (Isolate ID GG/190723/sa/1.2); assay: Bacterial assay: MIC, FtsZ G196A mutant strain; type: cell-based
Experimental: (§1) Compounds are tested for antimicrobial activity by susceptibility testing in liquid or on solid media. Minimum inhibitory concentrations (MICs) for compounds against each strain are determined by the broth microdilution or agar dilution method according to the guidelines of the Clinical Laboratories and Standards Institute, formerly the National Committee for Clinical Laboratory Standards (Clinical Laboratories and Standards Institute. Methods for Dilution Antimicrobial Susceptibility Tests for Bacteria That Grow Aerobically; Approved Standard—Seventh Edition. Document M7-A7. CLSI, Wayne, Pa., 2006; Clinical Laboratories and Standards Institute). The bacterial strains tested include S. aureus (Staphylococcus aureus (Isolate ID ATCC 29213)) and an FtsZ mutant of this isolate (FtsZ-G196A Staphylococcus aureus (Isolate ID GG/190723/sa/1.2)). Compound MICs were determined to be in the following activity ranges “A” activity≦0.25 μg/mL; “B” activity>0.25 μg/mL-1.0 μg/mL; “C” activity>1.0 μg/mL-16 μg/mL; “D” activity>16 μg/mL and ND=not determined. The bracketed entries indicate entantiomer(s) and their activity.
The comparative activity of selected compounds having a bromo-substituted oxazole against their corresponding non-brominated analogues is shown in Table 4.

[2] = Pharmacokinetic assay: plasma concentration by LC/MS/MS after single intravenous or peroral dose of 3 mg/kg; type: in vivo; settings: 3 mg/kg IV dosing in mice
Experimental: The pharmacokinetic profiles of selected comparator compounds A-N in Table 6 and compounds of the invention were determined by measuring the compound concentration in plasma by LC/MS/MS following a single intravenous or peroral administration of the compounds at a dose of 3 mg/kg. The concentrations described are the mean plasma concentrations at each time point from three animals. Intravenous dose formulation was administered as a single bolus dose through the tail vein. Oral dose formulation was administered to animals by an oral gavage needle. In both cases the dose volume was 5.0 mL/kg. Blood was collected from anesthetized mice through a capillary guided into the retro-orbital plexus. The collected blood was centrifuged to obtain plasma and the compounds extracted into methanol prior to determining the compound concentration by LC/MS/MS. The results are shown graphically in FIG. 1 and for the AUC and CL parameters in Table 6.

[3] = system: Staphylococcus aureus (Isolate ID ATCC 29213); assay: Bacterial assay: MIC by broth microdilution or agar dilution (CLSI), S. aureus ATCC 29213; type: cell-based; settings: Staphylococcus aureus
Method in brief: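 Activity is binned (A ≤0.25 μg/mL; B >0.25–1.0; C >1.0–16; D >16 μg/mL) from MICs determined per CLSI by broth microdilution or agar dilution, on S. aureus ATCC 29213 plus an FtsZ-G196A mutant strain.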

[4] = system: S. aureus ATCC BAA-44 (MDRSA); assay: microbe, parasite or virus in culture; type: cell-based; settings: Staphylococcus aureus, ATCCBAA44
Experimental: as §1
(§2) Selected compounds were also tested against a panel of target strains and their MICs are shown in Table 3 against the gold standard Linezolid. […] The activity of the compounds observed against S. aureus was also shown to be maintained within a narrow range across the staphylococcal panel tested.

[5] = system: S. aureus ATCC 43300 (MRSA); assay: microbe, parasite or virus in culture; type: cell-based; settings: Staphylococcus aureus
Experimental: as §1, §2

[6] = system: S. epidermidis ATCC 12228; assay: MIC, staphylococcal panel; type: cell-based; settings: Staphylococcus epidermidis, ATCC12228
Experimental: as §1, §2

S. warneri ATCC 49454 = assay: MIC, staphylococcal panel; type: cell-based; settings: Staphylococcus warneri, ATCC49454
Experimental: as §1, §2

[7] = system: S. haemolyticus ATCC 29970; assay: MIC, staphylococcal panel; type: cell-based; settings: Staphylococcus haemolyticus, ATCC29970
Experimental: as §1, §2

S. hominis ATCC 27844 = assay: MIC, staphylococcal panel; type: cell-based; settings: Staphylococcus hominis, ATCC27844
Experimental: as §1, §2

[8] = system: S. aureus ATCC 19636 (Smith); assay: MIC, staphylococcal panel; type: cell-based; settings: Staphylococcus aureus, ATCC19636
Experimental: as §1, §2

[9] = system: S. lugdunensis ATCC 43809; assay: MIC, staphylococcal panel; type: cell-based; settings: Staphylococcus lugdunensis, ATCC43809
Experimental: as §1, §2

[10] = system: S. saprophyticus ATCC 43809; assay: MIC, staphylococcal panel; type: cell-based; settings: Staphylococcus saprophyticus, ATCC43809
Experimental: as §1, §2

[11] = read-out: MIC (μg/mL) G196A mutant strain
[12] = ATCC29213, read-out: MIC (μg/mL) S. aureus (ATCC29213), Table 5, racemate and enantiomers
[13] = ATCC29213, read-out: S. aureus MIC (μg/mL) Activity Range, S. aureus (ATCC29213)
[14] = ATCC29213, Staphylococcus aureus ATCC 29213, Table 3 panel
[15] = read-out: MIC (μg/mL) FtsZ G196A mutant strain

NC(=O)c1c(F)ccc(OC(CO)c2nc(-c3ccc(C(F)(F)F)cc3)c(Br)o2)c1F (racemic) [Compound 38, 3-(1-(5-bromo-4-(4-(trifluoromethyl)phenyl)oxazol-2-yl)-2-hydroxyethoxy)-2,6-difluorobenzamide]
MIC [1, 11]: 4 µg/mL (≈ 7.89 µM) | AUC [2]: 6700 ng·h/mL | clearance ([2]; mouse, plasma): 7 mL/min/kg | MIC [3, 12]: 0.25 µg/mL (≈ 0.493 µM) | MIC [3, 13]: < 0.25 µg/mL

NC(=O)c1c(F)ccc(O[C@H](CO)c2nc(-c3ccc(C(F)(F)F)cc3)c(Br)o2)c1F (single isomer, unassigned) [Compound 38B]
MIC [1, 11]: 2 µg/mL (≈ 3.94 µM) | clearance ([2]; mouse, plasma): 12 mL/min/kg | AUC ([2]; mouse, plasma, read-out: AUC): 4000 ng·h/mL | MIC [4]: 0.125 µg/mL (≈ 0.246 µM) | MIC [5]: 0.125 µg/mL (≈ 0.246 µM) | MIC [6]: 0.125 µg/mL (≈ 0.246 µM) | MIC (S. warneri ATCC 49454): 0.25 µg/mL (≈ 0.493 µM) | MIC [7]: 0.125 µg/mL (≈ 0.246 µM) | MIC (S. hominis ATCC 27844): 0.125 µg/mL (≈ 0.246 µM) | MIC [8]: 0.125 µg/mL (≈ 0.246 µM) | MIC [9]: 0.25 µg/mL (≈ 0.493 µM) | MIC [10]: 0.06 µg/mL (≈ 0.118 µM) | MIC [3, 14]: 0.125 µg/mL (≈ 0.246 µM) | MIC [3, 12]: 0.125 µg/mL (≈ 0.246 µM) | MIC [3, 13]: < 0.25 µg/mL

NC(=O)c1c(F)ccc(OC(CO)c2nc(-c3ccc(F)cc3F)c(Br)o2)c1F (racemic) [Compound 233, 3-(1-(5-bromo-4-(2,4-difluorophenyl)oxazol-2-yl)-2-hydroxyethoxy)-2,6-difluorobenzamide]
MIC [1, 11]: 8 µg/mL (≈ 16.8 µM) | clearance ([2]; mouse, plasma): 18 mL/min/kg | AUC ([2]; mouse, plasma, read-out: AUC): 2300 ng·h/mL | MIC [4]: 0.25 µg/mL (≈ 0.526 µM) | MIC [5]: 0.5 µg/mL (≈ 1.05 µM) | MIC [6]: 0.5 µg/mL (≈ 1.05 µM) | MIC (S. warneri ATCC 49454): 0.5 µg/mL (≈ 1.05 µM) | MIC [7]: 0.5 µg/mL (≈ 1.05 µM) | MIC (S. hominis ATCC 27844): 0.5 µg/mL (≈ 1.05 µM) | MIC [8]: 0.25 µg/mL (≈ 0.526 µM) | MIC [9]: 0.5 µg/mL (≈ 1.05 µM) | MIC [10]: 0.5 µg/mL (≈ 1.05 µM) | MIC [3, 14]: 0.25 µg/mL (≈ 0.526 µM) | MIC [3, 12]: 0.25 µg/mL (≈ 0.526 µM) | MIC [3, 13]: < 0.25 µg/mL

CC(=O)NC[C@H]1CN(c2ccc(N3CCOCC3)c(F)c2)C(=O)O1 [Linezolid, reference compound]
MIC ([4]; S. aureus ATCC BAA-44 (MDRSA), read-out: MIC): 1 µg/mL (≈ 2.96 µM) | MIC ([5]; S. aureus ATCC 43300 (MRSA), read-out: MIC): 2 µg/mL (≈ 5.93 µM) | MIC ([6]; S. epidermidis ATCC 12228, read-out: MIC): 1 µg/mL (≈ 2.96 µM) | MIC (S. warneri ATCC 49454; S. warneri ATCC 49454, read-out: MIC): 2 µg/mL (≈ 5.93 µM) | MIC ([7]; S. haemolyticus ATCC 29970, read-out: MIC): 1 µg/mL (≈ 2.96 µM) | MIC (S. hominis ATCC 27844; S. hominis ATCC 27844, read-out: MIC): 1 µg/mL (≈ 2.96 µM) | MIC ([8]; S. aureus ATCC 19636 (Smith), read-out: MIC): 2 µg/mL (≈ 5.93 µM) | MIC ([9]; S. lugdunensis ATCC 43809, read-out: MIC): 1 µg/mL (≈ 2.96 µM) | MIC ([10]; S. saprophyticus ATCC 43809, read-out: MIC): 2 µg/mL (≈ 5.93 µM) | MIC ([3]; ATCC29213, Staphylococcus aureus ATCC 29213, Table 3 panel, read-out: MIC): 2 µg/mL (≈ 5.93 µM)

NC(=O)c1c(F)ccc(O[C@@H](CO)c2nc(-c3ccc(C(F)(F)F)cc3)c(Br)o2)c1F (single isomer, unassigned) [Compound 38A]
MIC [1, 11]: 64 µg/mL (≈ 126 µM) | clearance ([2]; mouse, plasma): 6 mL/min/kg | AUC ([2]; mouse, plasma, read-out: AUC): 7800 ng·h/mL | MIC [3, 12]: 16 µg/mL (≈ 31.5 µM) | MIC [3, 13]: 1 to 16 µg/mL (≈ 1.97 to 31.5 µM)

C[C@@H](Oc1ccc(F)c(C(N)=O)c1F)c1nc(-c2ccc(C(F)(F)F)cc2)co1 [Compound 183, (R)-2,6-difluoro-3-(1-(4-(4-(trifluoromethyl)phenyl)oxazol-2-yl)ethoxy)benzamide]
MIC [1, 15]: > 256 µg/mL | MIC [3, 13]: 1 to 16 µg/mL (≈ 2.43 to 38.8 µM)

COc1ccc(-c2coc([C@@H](C)Oc3ccc(F)c(C(N)=O)c3F)n2)cc1 [Compound 268B]
MIC [1, 15]: > 256 µg/mL | MIC [3, 13]: 1 to 16 µg/mL (≈ 2.67 to 42.7 µM)
